Values after ≈ are worked out from the molar mass of the structure shown.
Legend:
HEK293 = assay: cells; format: functional; conditions: Homo sapiens, ATCC CRL1573, HEK293; ASSAY_TEST Inhibition of Cell Viability; detection method Resazurin; Fluorescence (ex560/em590); MEDIA DMEM with 10% FBS; plate type 384well; TC; CORNING #3712; time 18 hr
Escherichia coli = assay: microbe, parasite or virus in culture; conditions: ATCC 25922, 18 h, ASSAY_TEST Inhibition of Bacterial Growth, detection method Absorption (OD600), MEDIA CAMHB, plate type 384well, NBS, CORNING #3640
Description: Antibacterial activity against Escherichia coli ATCC 25922 (CO-ADD:GN_001); MIC in CAMBH media using NBS plates, by OD(600)

Acinetobacter baumannii = assay: microbe, parasite or virus in culture; conditions: ATCC 19606, 18 h, ASSAY_TEST Inhibition of Bacterial Growth, detection method Absorption (OD600), MEDIA CAMHB, plate type 384well, NBS, CORNING #3640
Description: Antibacterial activity against Acinetobacter baumannii ATCC 19606 (CO-ADD:GN_034); MIC in CAMBH media using NBS plates, by OD600

Klebsiella pneumoniae = assay: microbe, parasite or virus in culture; conditions: ATCC 700603, 18 h, ASSAY_TEST Inhibition of Bacterial Growth, detection method Absorption (OD600), MEDIA CAMHB, plate type 384well, NBS, CORNING #3640
Description: Antibacterial activity against Klebsiella pneumoniae MDR ATCC 70063 (CO-ADD:GN_003); MIC in CAMBH media using NBS plates, by OD(600)

Candida albicans = assay: microbe, parasite or virus in culture; conditions: ATCC 90028, ASSAY_TEST Inhibition of Fungal Growth, detection method Absorption (OD530), plate type 384well, NBS, CORNING #3640
Description: Antifungal activity against Candida albicans ATCC 90028 (CO-ADD:FG_001); MIC in YNB media using NBS plates, by OD630

Pseudomonas aeruginosa = assay: microbe, parasite or virus in culture; conditions: ATCC 27853, 18 h, ASSAY_TEST Inhibition of Bacterial Growth, detection method Absorption (OD600), MEDIA CAMHB, plate type 384well, NBS, CORNING #3640
Description: Antibacterial activity against Pseudomonas aeruginosa ATCC 27853 (CO-ADD:GN_042); MIC in CAMBH media using NBS plates, by OD(600)

Staphylococcus aureus = assay: microbe, parasite or virus in culture; conditions: ATCC 43300, 18 h, ASSAY_TEST Inhibition of Bacterial Growth, detection method Absorption (OD600), MEDIA CAMHB, plate type 384well, NBS, CORNING #3640
Description: Antibacterial activity against Staphylococcus aureus MRSA ATCC 43300 (CO-ADD:GP_020); MIC in CAMBH media, using NBS plates, by OD(600)

Description for Cryptococcus neoformans: Antifungal activity against Cryptococcus neoformans H99 ATCC 208821 (CO-ADD:FG_002); MIC in YNB media using NBS plates, by Resazurin OD(600-570)

MIC (Escherichia coli) [µg/mL] | MIC (Cryptococcus neoformans) [µg/mL] | MIC (Acinetobacter baumannii) [µg/mL] | MIC (Klebsiella pneumoniae) [µg/mL] | MIC (Candida albicans) [µg/mL] | MIC (Pseudomonas aeruginosa) [µg/mL] | MIC (Staphylococcus aureus) [µg/mL] | SMILES | CC50 (HEK293) [µg/mL]
> 32 | 32 | > 32 | > 32 | > 32 | > 32 | 16 | CCN1C(=O)c2cccc3c(-c4c[n+](CCN5CCCNCCN(CC[n+]6cc(COc7ccc8c(c7)CC[C@@H]7[C@@H]8CC[C@]8(C)C(=O)CC[C@@H]78)[nH]n6)CCCNCC5)n[nH]4)ccc(c23)C1=O.[O-][Cl+3]([O-])([O-])O.[O-][Cl+3]([O-])([O-])O.[Zn+2] | > 32
> 32 | > 32 | > 32 | > 32 | 0.5 (≈ 1.43 µM) | > 32 | > 32 | Clc1ccc(-c2nnc3cncc(OCCc4ccccc4)n23)cc1 | 21.7 (≈ 61.9 µM)
> 32 | 4 | > 32 | > 32 | > 32 | > 32 | 4 | [O-][Cl+3]([O-])([O-])O.[O-][Cl+3]([O-])([O-])O.[Zn].c1ccc2c(-n3cc(CN4CCCNCCN(Cc5cn(-c6cccc7ccccc67)nn5)CCCNCC4)nn3)cccc2c1 | 4.89
